For 13 compounds, IC50 results are on record in US12565501B2, “Muscarinic acetylcholine M1 receptor antagonists” (Contineum Therapeutics, Inc., priority 2019, dated 2026).

Type in all cases: cell-based
The target in one test is T1, human M4 receptor (Homo sapiens, UniProt P08173).
T1 sequence (P08173 1-479): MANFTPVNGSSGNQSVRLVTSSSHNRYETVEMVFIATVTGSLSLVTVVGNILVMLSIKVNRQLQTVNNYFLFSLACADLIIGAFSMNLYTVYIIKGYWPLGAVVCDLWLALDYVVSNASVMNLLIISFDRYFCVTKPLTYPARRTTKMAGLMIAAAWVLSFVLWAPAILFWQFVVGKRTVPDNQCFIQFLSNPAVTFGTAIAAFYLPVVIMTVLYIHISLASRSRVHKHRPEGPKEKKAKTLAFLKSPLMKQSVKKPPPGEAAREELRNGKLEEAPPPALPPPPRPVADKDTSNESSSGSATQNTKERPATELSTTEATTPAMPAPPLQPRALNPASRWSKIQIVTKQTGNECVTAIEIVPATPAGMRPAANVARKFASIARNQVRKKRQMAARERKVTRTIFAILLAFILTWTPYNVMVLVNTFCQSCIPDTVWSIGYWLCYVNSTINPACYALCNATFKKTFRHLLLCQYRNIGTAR
The test can be described thus: In vitro functional assay, reversal of EC80 acetylcholine response in CHO-K1 aequorin cells. The protocol:
(§1) CHO-K1 cells stably expressing human M1 receptor with aequorin (Perkin Elmer) were grown in F12 media (Gibco) containing 10% FBS (ATCC), 0.4 mg/mL geneticin (Sigma-Aldrich) and 0.25 mg/mL Zeocin (Invitrogen). Cells were grown as per the manufacturer's protocol. For compound testing, cells were grown to confluency and detached gently with Accutase (Sigma-Aldrich) followed by centrifugation for 5 min at 150× g. Cells were then re-suspended in assay buffer (i.e. DMEM/F-12 HEPES without phenol red (Invitrogen) with 0.1% BSA (Sigma-Aldrich)) at a density of 5×10^6 cells/ml. Under sterile conditions, 5 μM coelenterazine (Invitrogen) was added to the cells, mixed, then incubated at room temperature protected from light, with gentle agitation, for 4 h.
(§2) Primary compound plates were prepared in 100% DMSO in opaque 96-well plates (VWR) and serially diluted in half log increments. Secondary compound plates were prepared at 3× concentration in assay buffer. Compounds were added to white, clear bottom tissue culture treated 96-well plates (Fisher Scientific). Coelenterazine-loaded cells were then added at 5×10^5 cells/well.
(§3) Compounds and cells were incubated at room temperature for 30 min in the dark. Acetylcholine at the EC80 concentration was added and calcium flux measured using a FlexStation 3 (Molecular Devices). Sigmoidal dose-response curves were generated by measuring luminescence over 40 sec and calculating the area under the curve. Dose response curves and IC50 values were generated using Prism (GraphPad). Compounds were tested at a final concentration range of 100 μM to […] in 0.1% DMSO.
(§4) CHO-K1 cells stably expressing human M2, M3 and M4 receptors, respectively, with aequonin (Perkin Elmer) were used to assess a test compound's ability to dose-dependently reverse the EC80 acetylcholine response. The IC50 of the compounds was calculated from the dose response curve.

A further test deals with T2, human M2 receptor (Homo sapiens, UniProt P08172).
T2 sequence (P08172 1-466): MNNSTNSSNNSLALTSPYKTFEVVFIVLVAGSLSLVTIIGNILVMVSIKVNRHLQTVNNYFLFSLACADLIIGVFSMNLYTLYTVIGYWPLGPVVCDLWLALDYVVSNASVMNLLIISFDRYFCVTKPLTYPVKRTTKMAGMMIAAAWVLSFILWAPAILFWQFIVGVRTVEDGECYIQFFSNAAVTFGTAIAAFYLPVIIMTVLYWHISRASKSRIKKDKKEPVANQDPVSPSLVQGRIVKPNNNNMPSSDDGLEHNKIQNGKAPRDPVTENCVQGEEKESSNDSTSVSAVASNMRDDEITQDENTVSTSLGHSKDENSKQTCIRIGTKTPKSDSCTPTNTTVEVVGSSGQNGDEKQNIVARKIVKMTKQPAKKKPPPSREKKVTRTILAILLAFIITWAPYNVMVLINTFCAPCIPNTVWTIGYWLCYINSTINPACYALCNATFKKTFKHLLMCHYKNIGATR
Described as above. The method, then:
as §1, §2, §3, §4

Another test concerns the target human M3 receptor (Homo sapiens, UniProt P20309). The description is as above. The protocol: as §1, §2, §3, §4
Another test addresses T3, human M1 receptor (Homo sapiens, UniProt P11229).
T3 sequence (P11229 1-460): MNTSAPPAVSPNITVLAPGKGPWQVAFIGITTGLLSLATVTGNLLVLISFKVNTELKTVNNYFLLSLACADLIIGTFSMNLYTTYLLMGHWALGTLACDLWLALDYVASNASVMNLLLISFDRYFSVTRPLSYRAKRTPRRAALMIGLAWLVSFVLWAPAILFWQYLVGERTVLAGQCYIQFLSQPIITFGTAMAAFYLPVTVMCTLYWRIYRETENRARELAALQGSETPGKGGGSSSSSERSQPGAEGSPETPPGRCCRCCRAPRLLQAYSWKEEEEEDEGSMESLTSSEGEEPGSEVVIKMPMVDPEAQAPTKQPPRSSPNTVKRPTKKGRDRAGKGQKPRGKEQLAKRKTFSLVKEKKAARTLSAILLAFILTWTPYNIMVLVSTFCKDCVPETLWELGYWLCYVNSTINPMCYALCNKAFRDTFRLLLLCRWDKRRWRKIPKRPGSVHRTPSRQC
The experiment in a line: In vitro functional assay of muscarinic acetylcholine receptor activity (aequorin calcium flux, reversal of EC80 acetylcholine response). To be noted: CHO-K1 cells stably expressing human M1 receptor with aequorin; acetylcholine at EC80; calcium flux (luminescence); read-out: M1 IC50. The essentials:
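CHO-K1 cells expressing human M1 and aequorin, loaded with 5 μM coelenterazine for 4 h, preincubated with compound 30 min at room temperature, then challenged with EC80 acetylcholine.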

Bounds are passed on as bounds.

human M3 receptor, sequence (P20309 whole entry): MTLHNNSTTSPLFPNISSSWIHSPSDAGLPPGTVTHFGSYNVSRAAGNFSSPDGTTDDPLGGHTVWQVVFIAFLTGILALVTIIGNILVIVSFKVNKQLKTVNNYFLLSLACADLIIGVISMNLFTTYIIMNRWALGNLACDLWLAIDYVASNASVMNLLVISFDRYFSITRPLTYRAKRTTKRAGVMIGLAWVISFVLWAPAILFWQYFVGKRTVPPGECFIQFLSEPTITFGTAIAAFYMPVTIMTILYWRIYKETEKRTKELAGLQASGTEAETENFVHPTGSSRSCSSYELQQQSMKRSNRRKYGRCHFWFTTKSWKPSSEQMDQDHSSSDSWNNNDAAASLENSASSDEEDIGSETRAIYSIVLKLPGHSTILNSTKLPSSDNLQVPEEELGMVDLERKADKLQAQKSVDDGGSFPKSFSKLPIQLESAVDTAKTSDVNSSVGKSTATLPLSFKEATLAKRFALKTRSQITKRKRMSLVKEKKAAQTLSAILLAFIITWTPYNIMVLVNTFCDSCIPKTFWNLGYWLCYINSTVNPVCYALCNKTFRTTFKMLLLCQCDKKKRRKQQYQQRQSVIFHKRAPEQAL

For `N#Cc1ccc(N2C3CCC2CN(C(=O)CCNC2(c4ccc(F)c(F)c4)CC2)C3)nc1` [Example 1, 6-(3-(3-((1-(3,4-difluorophenyl)cyclopropyl)amino)propanoyl)-3,8-diazabicyclo[3.2.1]octan-8-yl)nicotinonitrile], the IC50 (as a rule, the midpoint of a concentration-inhibition curve) at human M4 receptor was 0.1 to 1 µM; at human M2 receptor, 0.1 to 1 µM; at human M3 receptor, 1 to 10 µM; on human M1 receptor, below 0.01 µM.
In the case of `N#Cc1ccc(N2C3CCC2CN(C(=O)CNC2(c4ccc(F)cc4F)CC2)C3)nc1` [Example 59, 6-(3-((1-(2,4-difluorophenyl)cyclopropyl)glycyl)-3,8-diazabicyclo[3.2.1]octan-8-yl)nicotinonitrile], the IC50 was 1 to 10 µM at human M4 receptor, 1 to 10 µM at human M2 receptor, 1 to 10 µM at human M3 receptor and below 0.01 µM on human M1 receptor.
With `C[C@H](NCC(=O)N1CC2CCC(C1)N2c1ccc(C#N)cn1)c1ccc(F)cc1F` [Example 87, 6-(3-(((S)-1-(2,4-difluorophenyl)ethyl)glycyl)-3,8-diazabicyclo[3.2.1]octan-8-yl)nicotinonitrile], the IC50 was 1 to 10 µM on human M4 receptor, 1 to 10 µM at human M2 receptor, 1 to 10 µM on human M3 receptor and below 0.01 µM at human M1 receptor.
Regarding `COc1cc(C2(NCC(=O)N3CC4CCC(C3)N4c3ccc(C#N)cn3)CCC2)ccn1` [Example 118, 6-(3-((1-(2-methoxypyridin-4-yl)cyclobutyl)glycyl)-3,8-diazabicyclo[3.2.1]octan-8-yl)nicotinonitrile], the 50% inhibitory concentration (IC50) at human M4 receptor was in the range of 0.1 to 1 µM; at human M2 receptor it was 1 to 10 µM; on human M3 receptor, 1 to 10 µM; at human M1 receptor, 0.01 to 0.1 µM.
Turning to `COc1cc(C(F)(F)CCC(=O)N2CC3CCC(C2)N3c2ccc(C#N)cn2)ccn1` [Example 138, 6-(3-(4,4-difluoro-4-(2-methoxypyridin-4-yl)butanoyl)-3,8-diazabicyclo[3.2.1]octan-8-yl)nicotinonitrile], the IC50 on human M4 receptor was 0.1 to 1 µM; on human M2 receptor, 1 to 10 µM; at human M3 receptor it was 0.1 to 1 µM; at human M1 receptor it was below 0.01 µM.
As for `COc1ccnc(C(F)(F)CCC(=O)N2CC3CCC(C2)N3c2ccc(C#N)cn2)c1` [Example 147, 6-(3-(4,4-difluoro-4-(4-methoxypyridin-2-yl)butanoyl)-3,8-diazabicyclo[3.2.1]oxtan-8-yl)nicotinonitrile], the half-inhibitory concentration (IC50) is 0.1 to 1 µM on human M4 receptor, 1 to 10 µM at human M2 receptor, 0.1 to 1 µM at human M3 receptor and below 0.01 µM at human M1 receptor.
In the case of `N#Cc1ccc(N2C3CCC2CN(C(=O)CCC(F)(F)c2cccn4ncnc24)C3)nc1` [Example 158, 6-(3-(4-([1,2,4]triazolo[1,5-a]pyridin-8-yl)-4,4-difluorobutanoyl)-3,8-diazabicyclo[3.2.1]octan-8-yl)nicotinonitrile], the IC50 on human M4 receptor was 0.1 to 1 µM; at human M2 receptor it was 1 to 10 µM; at human M3 receptor, 0.1 to 1 µM; on human M1 receptor, below 0.01 µM.
As to `COc1cccnc1C(F)(F)CCC(=O)N1CC2CCC(C1)N2c1ccc(C#N)cn1` [Example 162, 6-(3-(4,4-difluoro-4-(3-methoxypyridin-2-yl)butanoyl)-3,8-diazabicyclo[3.2.1]octan-8-yl)nicotinonitrile], the 50% inhibitory concentration (IC50) at human M4 receptor is 0.1 to 1 µM; on human M2 receptor, 1 to 10 µM; on human M3 receptor, 0.1 to 1 µM; at human M1 receptor, below 0.01 µM.
As to `N#Cc1ccc(N2C3CCC2CN(C(=O)COC2(c4ccc(F)c(F)c4)CC2)C3)nc1` [Example 177, 6-(3-(2-(1-(3,4-difluorophenyl)cyclopropoxy)acetyl)-3,8-diazabicyclo[3.2.1]octan-8-yl)nicotinonitrile], the half-inhibitory concentration (IC50) on human M4 receptor was 1 to 10 µM; on human M2 receptor, 1 to 10 µM; at human M3 receptor, 1 to 10 µM; at human M1 receptor, 0.01 to 0.1 µM.
Consider `N#Cc1ccc(N2C3CCC2CN(C(=O)COC2(c4cc(F)cc(F)c4)CC2)C3)nc1` [Example 210, 6-(3-(2-(1-(3,5-difluorophenyl)cyclopropoxy)acetyl)-3,8-diazabicyclo[3.2.1]octan-8-yl)nicotinonitrile], for which the half-inhibitory concentration (IC50) at human M2 receptor is above 1 µM; at human M3 receptor it was 1 to 10 µM; at human M1 receptor it was 0.01 to 0.1 µM.
`N#Cc1ccc(N2C3CC[C@H]2CN(C(=O)COC2(c4ccc(F)c(F)c4)CCC2)C3)nc1` [Example 239]: the concentration for half-maximal inhibition (IC50) at human M4 receptor is 1 to 10 µM; at human M2 receptor it was 1 to 10 µM; on human M3 receptor, 1 to 10 µM; at human M1 receptor, below 0.01 µM.
Take `N#Cc1ccc(N2C3CCC2CN(C(=O)COC2(c4ncccc4F)CCC2)C3)nc1` [Example 250, 6-(3-(2-(1-(3-fluoropyridin-2-yl)cyclobutoxy)acetyl)-3,8-diazabicyclo[3.2.1]octan-8-yl)nicotinonitrile]: the IC50 was above 1 µM at human M2 receptor, 1 to 10 µM at human M3 receptor and 0.1 to 1 µM on human M1 receptor.
In the case of `C[C@@H](OCCC(=O)N1C[C@H]2CC[C@@H](C1)N2c1ccc(C#N)cn1)c1ccccc1` [Example 304, 6-(3-(3-((R)-1-phenylethoxy)propanoyl)-3,8-diazabicyclo[3.2.1]octan-8-yl)nicotinonitrile], the IC50 was 1 to 10 µM at human M2 receptor, above 1 µM at human M3 receptor and 0.01 to 0.1 µM at human M1 receptor.
